From PubChem BioAssay AID652018 (The Scripps Research Institute Molecular Screening Center, 2013)
Calls of active or inactive are those of the source.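 Rule for the calls: active = at least 50% inhibition of LYPLA1 or LYPLA2 at 300 nM, with no off-target enzyme hit at any dose; inactive = under 50% inhibition on both enzymes, or any off-target hit.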

molecular target: Acyl-protein thioesterase 2 (Homo sapiens) (UniProt O95372); assay: LYPLA1/LYPLA2 inhibition and anti-target count – cell lysate, competitive ABPP, HEK293T proteome, set 2, selectivity assay for LYPLA1 inhibitor project, late-stage follow-up (AID 652018); details: competitive ABPP FP-PEG-Rh gel, LYPLA2, at 10 µM, stronger effect = higher value;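 note: 0% = DMSO-only band intensity and 100% = blank gel background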
Sequence (O95372 whole entry, looked up): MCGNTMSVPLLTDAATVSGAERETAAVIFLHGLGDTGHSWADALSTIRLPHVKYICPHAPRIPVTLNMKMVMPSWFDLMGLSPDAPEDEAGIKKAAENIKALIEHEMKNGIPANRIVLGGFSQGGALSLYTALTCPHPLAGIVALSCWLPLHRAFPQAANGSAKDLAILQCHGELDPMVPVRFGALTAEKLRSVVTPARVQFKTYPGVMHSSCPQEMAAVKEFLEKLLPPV

Q: With `O=C(N1CCN(c2ccc(Cl)c(Cl)c2)CC1)n1ncc(C(O)(c2ccccc2)c2ccccc2)n1` as the compound, how does the inhibition read?
A: The inhibition was 30% (inactive).

Q: With `COc1ccc(N2CCN(C(=O)n3cc(C(O)(c4ccccc4)c4ccccc4)nn3)CC2)cc1` as the compound, how does the inhibition read?
A: The inhibition was 100% (inactive).

Q: With `O=C(CN1CCN(C(=O)n2ncc(-c3ccc(-c4ccccc4)cc3)n2)CC1)Nc1cc(C(F)(F)F)ccc1Cl` as the compound, how does the inhibition read?
A: The inhibition was 30% (inactive).

Q: `COc1ccc(N2CCN(C(=O)n3nccn3)CC2)cc1` was tested. Which inhibition did it give?
A: The inhibition was 100% (inactive).

Q: For `O=C(CN1CCN(C(=O)n2nccn2)CC1)Nc1cc(C(F)(F)F)ccc1Cl`, which inhibition is on record?
A: Its inhibition is 95% (inactive).

Q: For `O=C(CN1CCN(C(=O)n2nc(Br)nc2Br)CC1)Nc1cc(C(F)(F)F)ccc1Cl`, which inhibition is on record?
A: Its inhibition is 100% (inactive).

Q: With `COc1ccc(N2CCN(C(=O)n3cc(-c4ccc(OC(F)(F)F)cc4)nn3)CC2)cc1` as the compound, how does the inhibition read?
A: The inhibition was 60% (inactive).

Q: Which inhibition does the source give for `COc1ccc(N2CCN(C(=O)n3ccnn3)CC2)cc1` here?
A: The inhibition was 85% (inactive).

Q: `COc1ccc(N2CCN(C(=O)n3ncc(C(O)(c4ccccc4)c4ccccc4)n3)CC2)cc1` was tested. Which inhibition did it give?
A: Its inhibition is 100%.

Q: Which inhibition does the source give for `O=C(N1CCN(c2ccc(Br)cc2)CC1)n1ncc(C(O)(c2ccccc2)c2ccccc2)n1` here?
A: Its inhibition is 80% (inactive).

Q: For `O=C(CN1CCN(C(=O)n2cncn2)CC1)Nc1cc(C(F)(F)F)ccc1Cl`, which inhibition is on record?
A: The inhibition was 30% (inactive).

Q: Which inhibition does the source give for `O=C(CN1CCN(C(=O)n2cc(-c3ccc(-c4ccccc4)cc3)nn2)CC1)Nc1cc(C(F)(F)F)ccc1Cl` here?
A: Its inhibition is 30% (inactive).

Q: How did the inhibition turn out when `O=C(CN1CCN(C(=O)n2cc(C(O)(c3ccccc3)c3ccccc3)nn2)CC1)Nc1cc(C(F)(F)F)ccc1Cl` was run?
A: The inhibition was 100%.

Q: With `O=C(CN1CCN(C(=O)n2ncc(C(O)(c3ccccc3)c3ccccc3)n2)CC1)Nc1cc(C(F)(F)F)ccc1Cl` as the compound, how does the inhibition read?
A: Its inhibition is 100%.

Q: With `COc1ccc(N2CCN(C(=O)n3cncn3)CC2)cc1` as the compound, how does the inhibition read?
A: Its inhibition is 95% (inactive).

Q: With `COc1ccc(N2CCN(C(=O)n3ncc(-c4ccc(OC(F)(F)F)cc4)n3)CC2)cc1` as the compound, how does the inhibition read?
A: The inhibition was 20% (inactive).

Q: For `COc1ccc(N2CCN(C(=O)n3nc(Br)nc3Br)CC2)cc1`, which inhibition is on record?
A: The inhibition was 95% (inactive).

Q: `COc1ccc(N2CCN(C(=O)n3nc(Br)c(Br)n3)CC2)cc1` was tested. Which inhibition did it give?
A: The inhibition was 100%.

Q: `COc1ccc(N2CCN(C(=O)n3ncc(-c4ccccc4)n3)CC2)cc1` was tested. Which inhibition did it give?
A: The inhibition was 30% (inactive).

Q: `O=C(CN1CCN(C(=O)n2cc(-c3ccc(OC(F)(F)F)cc3)nn2)CC1)Nc1cc(C(F)(F)F)ccc1Cl` was tested. Which inhibition did it give?
A: The inhibition was 30% (inactive).

Q: How did the inhibition turn out when `O=C(CN1CCN(C(=O)n2ncc(-c3ccc(Br)cc3)n2)CC1)Nc1cc(C(F)(F)F)ccc1Cl` was run?
A: Its inhibition is 75%.

Q: How did the inhibition turn out when `O=C(CN1CCN(C(=O)n2nc(Br)c(Br)n2)CC1)Nc1cc(C(F)(F)F)ccc1Cl` was run?
A: The inhibition was 100%.

Q: How did the inhibition turn out when `O=C(CN1CCN(C(=O)n2ncc(-c3ccc(OC(F)(F)F)cc3)n2)CC1)Nc1cc(C(F)(F)F)ccc1Cl` was run?
A: The inhibition was 95% (inactive).

same assay, conditions: competitive ABPP FP-PEG-Rh gel, LYPLA2, inhibition, at 0.3 µM, stronger effect = higher value

Q: Which inhibition does the source give for `O=C(N1CCN(c2ccc(Cl)c(Cl)c2)CC1)n1ncc(C(O)(c2ccccc2)c2ccccc2)n1` here?
A: The inhibition was 20%.

Q: `COc1ccc(N2CCN(C(=O)n3cc(C(O)(c4ccccc4)c4ccccc4)nn3)CC2)cc1` was tested. Which inhibition did it give?
A: Its inhibition is 20%.

Q: With `O=C(CN1CCN(C(=O)n2ncc(-c3ccc(-c4ccccc4)cc3)n2)CC1)Nc1cc(C(F)(F)F)ccc1Cl` as the compound, how does the inhibition read?
A: Its inhibition is 30%.

Q: Which inhibition does the source give for `COc1ccc(N2CCN(C(=O)n3nccn3)CC2)cc1` here?
A: The inhibition was 10%.

Q: Which inhibition does the source give for `O=C(CN1CCN(C(=O)n2nccn2)CC1)Nc1cc(C(F)(F)F)ccc1Cl` here?
A: Its inhibition is 30%.

Q: `O=C(CN1CCN(C(=O)n2nc(Br)nc2Br)CC1)Nc1cc(C(F)(F)F)ccc1Cl` was tested. Which inhibition did it give?
A: The inhibition was 40%.

Q: `COc1ccc(N2CCN(C(=O)n3cc(-c4ccc(OC(F)(F)F)cc4)nn3)CC2)cc1` was tested. Which inhibition did it give?
A: The inhibition was 10%.

Q: `COc1ccc(N2CCN(C(=O)n3ccnn3)CC2)cc1` was tested. Which inhibition did it give?
A: The inhibition was 10%.

Q: Which inhibition does the source give for `COc1ccc(N2CCN(C(=O)n3ncc(C(O)(c4ccccc4)c4ccccc4)n3)CC2)cc1` here?
A: Its inhibition is 75%.

Q: With `O=C(N1CCN(c2ccc(Br)cc2)CC1)n1ncc(C(O)(c2ccccc2)c2ccccc2)n1` as the compound, how does the inhibition read?
A: Its inhibition is 20%.

Q: With `O=C(CN1CCN(C(=O)n2cncn2)CC1)Nc1cc(C(F)(F)F)ccc1Cl` as the compound, how does the inhibition read?
A: Its inhibition is 30%.

Q: Which inhibition does the source give for `O=C(CN1CCN(C(=O)n2cc(-c3ccc(-c4ccccc4)cc3)nn2)CC1)Nc1cc(C(F)(F)F)ccc1Cl` here?
A: The inhibition was 30%.

Q: `O=C(CN1CCN(C(=O)n2cc(C(O)(c3ccccc3)c3ccccc3)nn2)CC1)Nc1cc(C(F)(F)F)ccc1Cl` was tested. Which inhibition did it give?
A: Its inhibition is 60%.

Q: `O=C(CN1CCN(C(=O)n2ncc(C(O)(c3ccccc3)c3ccccc3)n2)CC1)Nc1cc(C(F)(F)F)ccc1Cl` was tested. Which inhibition did it give?
A: The inhibition was 100%.

Q: Which inhibition does the source give for `COc1ccc(N2CCN(C(=O)n3cncn3)CC2)cc1` here?
A: Its inhibition is 10%.

Q: For `COc1ccc(N2CCN(C(=O)n3ncc(-c4ccc(OC(F)(F)F)cc4)n3)CC2)cc1`, which inhibition is on record?
A: The inhibition was 10%.

Q: Which inhibition does the source give for `COc1ccc(N2CCN(C(=O)n3nc(Br)nc3Br)CC2)cc1` here?
A: Its inhibition is 10%.

Q: With `COc1ccc(N2CCN(C(=O)n3nc(Br)c(Br)n3)CC2)cc1` as the compound, how does the inhibition read?
A: The inhibition was 50%.

Q: `COc1ccc(N2CCN(C(=O)n3ncc(-c4ccccc4)n3)CC2)cc1` was tested. Which inhibition did it give?
A: Its inhibition is 10%.

Q: Which inhibition does the source give for `O=C(CN1CCN(C(=O)n2cc(-c3ccc(OC(F)(F)F)cc3)nn2)CC1)Nc1cc(C(F)(F)F)ccc1Cl` here?
A: Its inhibition is 30%.

Q: With `O=C(CN1CCN(C(=O)n2ncc(-c3ccc(Br)cc3)n2)CC1)Nc1cc(C(F)(F)F)ccc1Cl` as the compound, how does the inhibition read?
A: Its inhibition is 50%.

Q: Which inhibition does the source give for `O=C(CN1CCN(C(=O)n2nc(Br)c(Br)n2)CC1)Nc1cc(C(F)(F)F)ccc1Cl` here?
A: Its inhibition is 85%.

Q: With `O=C(CN1CCN(C(=O)n2ncc(-c3ccc(OC(F)(F)F)cc3)n2)CC1)Nc1cc(C(F)(F)F)ccc1Cl` as the compound, how does the inhibition read?
A: The inhibition was 30%.

same assay, conditions: competitive ABPP FP-PEG-Rh gel, LYPLA2, inhibition, at 1 µM, stronger effect = higher value

Q: `O=C(N1CCN(c2ccc(Cl)c(Cl)c2)CC1)n1ncc(C(O)(c2ccccc2)c2ccccc2)n1` was tested. Which inhibition did it give?
A: Its inhibition is 30%.

Q: For `COc1ccc(N2CCN(C(=O)n3cc(C(O)(c4ccccc4)c4ccccc4)nn3)CC2)cc1`, which inhibition is on record?
A: Its inhibition is 95%.

Q: `O=C(CN1CCN(C(=O)n2ncc(-c3ccc(-c4ccccc4)cc3)n2)CC1)Nc1cc(C(F)(F)F)ccc1Cl` was tested. Which inhibition did it give?
A: Its inhibition is 30%.

Q: Which inhibition does the source give for `COc1ccc(N2CCN(C(=O)n3nccn3)CC2)cc1` here?
A: The inhibition was 60%.

Q: `O=C(CN1CCN(C(=O)n2nccn2)CC1)Nc1cc(C(F)(F)F)ccc1Cl` was tested. Which inhibition did it give?
A: The inhibition was 40%.

Q: Which inhibition does the source give for `O=C(CN1CCN(C(=O)n2nc(Br)nc2Br)CC1)Nc1cc(C(F)(F)F)ccc1Cl` here?
A: The inhibition was 75%.

Q: Which inhibition does the source give for `COc1ccc(N2CCN(C(=O)n3cc(-c4ccc(OC(F)(F)F)cc4)nn3)CC2)cc1` here?
A: The inhibition was 10%.

Q: With `COc1ccc(N2CCN(C(=O)n3ccnn3)CC2)cc1` as the compound, how does the inhibition read?
A: The inhibition was 30%.

Q: For `COc1ccc(N2CCN(C(=O)n3ncc(C(O)(c4ccccc4)c4ccccc4)n3)CC2)cc1`, which inhibition is on record?
A: The inhibition was 100%.

Q: Which inhibition does the source give for `O=C(N1CCN(c2ccc(Br)cc2)CC1)n1ncc(C(O)(c2ccccc2)c2ccccc2)n1` here?
A: Its inhibition is 30%.

Q: `O=C(CN1CCN(C(=O)n2cncn2)CC1)Nc1cc(C(F)(F)F)ccc1Cl` was tested. Which inhibition did it give?
A: The inhibition was 30%.

Q: Which inhibition does the source give for `O=C(CN1CCN(C(=O)n2cc(-c3ccc(-c4ccccc4)cc3)nn2)CC1)Nc1cc(C(F)(F)F)ccc1Cl` here?
A: The inhibition was 30%.

Q: `O=C(CN1CCN(C(=O)n2cc(C(O)(c3ccccc3)c3ccccc3)nn2)CC1)Nc1cc(C(F)(F)F)ccc1Cl` was tested. Which inhibition did it give?
A: Its inhibition is 85%.

Q: `O=C(CN1CCN(C(=O)n2ncc(C(O)(c3ccccc3)c3ccccc3)n2)CC1)Nc1cc(C(F)(F)F)ccc1Cl` was tested. Which inhibition did it give?
A: The inhibition was 100%.

Q: Which inhibition does the source give for `COc1ccc(N2CCN(C(=O)n3cncn3)CC2)cc1` here?
A: Its inhibition is 30%.

Q: `COc1ccc(N2CCN(C(=O)n3ncc(-c4ccc(OC(F)(F)F)cc4)n3)CC2)cc1` was tested. Which inhibition did it give?
A: Its inhibition is 10%.

Q: For `COc1ccc(N2CCN(C(=O)n3nc(Br)nc3Br)CC2)cc1`, which inhibition is on record?
A: Its inhibition is 30%.

Q: Which inhibition does the source give for `COc1ccc(N2CCN(C(=O)n3nc(Br)c(Br)n3)CC2)cc1` here?
A: Its inhibition is 80%.

Q: `COc1ccc(N2CCN(C(=O)n3ncc(-c4ccccc4)n3)CC2)cc1` was tested. Which inhibition did it give?
A: Its inhibition is 30%.

Q: Which inhibition does the source give for `O=C(CN1CCN(C(=O)n2cc(-c3ccc(OC(F)(F)F)cc3)nn2)CC1)Nc1cc(C(F)(F)F)ccc1Cl` here?
A: Its inhibition is 30%.

Q: Which inhibition does the source give for `O=C(CN1CCN(C(=O)n2ncc(-c3ccc(Br)cc3)n2)CC1)Nc1cc(C(F)(F)F)ccc1Cl` here?
A: Its inhibition is 40%.

Q: How did the inhibition turn out when `O=C(CN1CCN(C(=O)n2nc(Br)c(Br)n2)CC1)Nc1cc(C(F)(F)F)ccc1Cl` was run?
A: The inhibition was 100%.

Q: Which inhibition does the source give for `O=C(CN1CCN(C(=O)n2ncc(-c3ccc(OC(F)(F)F)cc3)n2)CC1)Nc1cc(C(F)(F)F)ccc1Cl` here?
A: Its inhibition is 30%.
